Data published in US20110195910A1, “USE OF TOCOTRIENOL COMPOSITION FOR THE PREVENTION OF CANCER” (DAVOS LIFE SCIENCE PTE. LTD., priority 2008, published 2011).

Columns and labels:
DU145 prostaspheres = experiment: Treatment of pre-formed CSC-enriched DU145 prostaspheres; assay type: cell-based; conditions: 40 ng/ml, 48 hrs
Method: (A) CSC enriched prostaspheres were formed by maintaining DU145 cells in non-adherent culture supplemented with serum replacement medium for 14 days. The prostaspheres were then treated with either vehicle, γ-T3 (10, 20 μg/ml) or Docetaxel (Doc, 40 ng/ml) for 48 hrs. Spheroids were counted under microscope before and after treatment. Results were presented as mean % change in spheroid number to control±s.d. Note that spheroids were highly sensitive to γ-T3 treatment but resistant to high dose of Docetaxel. (B) Images of prostaspheres after 48 hrs treatment with vehicle, 40 ng/ml of Docetaxel and 10 μg/ml of γ-T3.
5.1.7 Spheroid formation assay—Spheroid formation assay was performed with a protocol modified from previous study (Folkins C, p3560). Briefly, cells were first trypsinized, washed with 1× PBS and resuspended in DMEM F12 medium. Two hundred cells were added into each well of a 24-well-plate pre-coated with polyHEMA (Sigma, St. Louis, Mo.). Cells will be grown in DMEM/F12 mem (Invitrogen, Carlsbad, Calif.) supplemented with 4 μg/mL insulin (Sigma, St. Louis, Mo.), B27 (Invitrogen, Carlsbad, Calif.), 20 ng/mL EGF (Sigma, St. Louis, Mo.), and 20 ng/mL basic FGF (Invitrogen, Carlsbad, Calif.). Fresh medium with the above supplements was added every day. γ-T3 was added at indicated time points and the number of spheroids was counted at day 14 of the assay or at the end of the treatment. Each experiment was repeated in triplicates and each data point represented the mean and standard derivation.

DU145 = conditions: cited from earlier work
[1] = tested on: human estrogen-independent BCa cells (MDA-MB-231); experiment: MTT cell viability, MDA-MB-231 cells; assay type: cell-based; conditions: MDA-MB-231, 24 hours
Method: 1.1.3 Cell viability study and time course experiment—For cell viability study, 1×10^4 cells resuspended in 100 μl medium were plated into each well of a 96-well plate. The cells were then treated with different concentrations of the vitamin-E isomers for 24 hrs. After the treatment, 20 μl of 3-(4,5-Dimethyl thiazol-2-yl)-2,5-diphenyl tetrazolium bromide (MTT) solution was added into each well and the cells were incubated at 37° C. for 2 hrs. The formazan crystals were then re-suspended in 200 μl of DMSO and the intensity at 595 nm was measured. For JNK inhibitor study, cells were pre-treated with 20 μM of SP600125 for 8 hrs prior to the addition of vitamin-E isomers. For time course study, 5×10^3 cells were treated with different concentrations of the vitamin-E isomers and were subjected to MTT cell proliferation assay at the indicated time point. If IC50 for the isomer is >100 μM, 100 μM will be used as treatment dosage.
3.1.4 Cell viability and time course experiments were carried out as described above under item 1.1.3 with the following difference. For inhibitors study, cells were pre-treated with inhibitors (U0126, PD98059 and APN) at targeted dosage for 8 hrs prior to the addition of vitamin-E isomers.

MDA-MB-231 cells = experiment: Flow cytometry, western blotting and RT-PCR, MDA-MB-231 cells; assay type: cell-based, human; conditions: MDA-MB-231
Method: 1.1.3 Flow cytometry—Cell cycle distribution was examined using flow cytometry. Briefly, cells were harvested by trypsinization, fixed in 70% ethanol at 4° C. overnight, and then resuspended in PBS. After incubation at 4° C. for overnight, 2×10^6 cells were incubated with in 20 μg/ml propidium iodide (PI) and 2 mg RNaseA for 15 minutes at 37° C. Cells were then examined by BD SLRII cytometer and the results were analyzed using ModFit software (Becton Dickinson, Mountain View, Calif.). Data were expressed as the percentage of cell cycle distribution in the entire population.
1.1.5 Western blotting—Detailed protocols have been described previously and are known in the art. Briefly, cell lysates were prepared by suspending cell pellets in lysis buffer [50 mmol/l Tris-HCl (pH 8.0), 150 mmol/l NaCl, 1% NP40, 0.5% deoxycholate, 0.1% SDS, 1 mg/ml aprotinin, 1 μg/ml leupeptin and 1 mmol/l phenylmethylsulfonyl fluoride]. For nuclear protein extraction, NucBuster™ protein extraction kit was used. Protein concentration was measured using the DC Protein Assay kit (Bio-Rad, Hercules, Calif.). Equal amount of protein (30 μg) was loaded onto a 10% SDS polyacrylamide gel for electrophoresis and then transferred onto a polyvinylidene difluoride membrane (Amersham, Piscataway, N.J.). The membrane was then incubated with primary antibodies for 1 hr at room temperature against E-cadherin (BD Biosciences, Bedford, Mass.), α-catenin, β-catenin, γ-catenin, Id-1, Id-3, EGFR, phosphor-c-jun, phosphor-ATF2, cleaved PARP, vimentin, α-smooth muscle actin, twist (Santa Cruz Biotechnology, Calif.), phosphor-IkB-alpha (Ser32/36), phosphor-IKK alpha (Seri 80)/IKK beta (Ser181), phosphor-SAPK/JNK (Thr183/Tyr185) G9, SAPK/JNK, NF-kB p65 (5A5) (Cell Signaling Technology Inc, Beverly, Mass.), Snail (Abcam). After incubation with appropriate secondary antibodies, signals were visualized by ECL western blotting system (Amersham, Piscataway, N.J.). Expression of β-actin and histone H1 were assessed as an internal loading control for total cell lysate and nuclear protein lysate respectively.
3.1.5 DNA fragmentation assay—After 24 hrs incubation with gamma-T3, 3×10^6 MDA-MB-231 cells were harvested and suspended in lysis buffer [5 mM Tris-HCl (pH 8.0), 20 mM EDTA, and 0.5% (v/v) Triton X-100] for 60 min on ice. Samples were centrifuged, the supernatants were removed and incubated with 5 μl RNase A (10 μg/ml) at 37° C. for 40 min, and 1 ml of anhydrous ethanol was added. Tubes were placed at […] for 20 min and then centrifuged to pellet the DNA. DNA samples were analyzed by electrophoresis at 80 V for 3 hrs on a 2% agarose gel containing ethidium bromide (0.2 μg/ml) and visualized under UV illumination.
3.1.6 Terminal deoxynucleotidyltransferase-mediated deoxyuridine triphosphate nick end-labelling (TUNEL) assay—DNA strand breaks during apoptosis was examined using in situ cell death detection reagent (Roche Applied Science). Briefly, 1×10^6 cells were pretreated with gamma-T3 for 24 hrs. Thereafter, cells were incubated with reaction mixture for 60 min at 37° C. Stained cells were analyzed and captured by fluorescence microscope on glass slide.
3.1.7 Flow cytometry was carried out as described above under item 1.1.3. Matrigel-invasion assay was carried out as described above under item 1.1.4. Western blotting was carried out as described above under item 1.1.5.
3.1.8 Id-1 RT-PCR—Total RNA was isolated using Trizol® reagent according to the manufacturer's protocol (Invitrogen). cDNA was synthesized using the SuperScript™ First Strand Synthesis System (Invitrogen) and was then amplified by PCR with Id-1 specific primers (forward primer, Id1-S, 5′-CTCCAGCACGTCATCGACTA-3′ and reverse primer, Id1-AS,5′-AAC GCA TGC CGC CTC-3′). PCR cycling protocol was as follows: 30 cycles of 10 min at 95° C., 30 s at 95° C., 30 s at 55° C., 1 min at 72° C. and 10 min at 72° C. Glyceraldehyde 3-phosphate dehydrogenase was amplified as an internal control. […]

[2] = tested on: human androgen-dependent PCa cells (LNCaP); experiment: MTT cell viability, LNCaP cells; assay type: cell-based
Method: 2.1.3 Cell viability study and time course experiment—For cell viability study, 5×10^3 cells resuspended in 100 μl medium were plated into each well of a 96-well plate. The cells were then treated with different concentrations (20, 40, 60, 80, 100 μM) of the vitamin-E isomers for 24 and 48 hrs. After the treatment, 20 μl of MTT solution was added into each well and the cells were incubated at 37° C. for 2 hrs. The formazan crystals were then re-suspended in 200 μl of DMSO and the intensity at 595 nm were measured. For JNK inhibitor study, cells were pre-treated with 20 μM of SP600125 for 8 hrs prior to the addition of vitamin-E isomers. For time course study, 5×10^3 cells (LNCaP and PC3) were treated with IC50 concentrations of the vitamin-E isomers and were subjected to MTT assay at the indicated time point. […] After 24 hrs, cells were subjected to western blotting and MTT assays respectively.

[3] = tested on: prostate intraepithelial neoplasia (PIN); experiment: Prevention of prostate intraepithelial neoplasia (PIN) in prostate cancer mouse models; assay type: in vivo; conditions: fed mice, FIG. 8
Method: For experiments, 5-week old prostate cancer mouse models previously published (Gabril, M. Y., Duan, W., et al., Molecular Therapy (2005), vol. 11, no. 3, p. 348; Greenberg et al., Proc Natl Acad Sci USA (1995), vol. 92, pp. 3439-3443; Duan, W., Gabril, M. Y., et al., Oncogene (2005) 24, 1510-1524; Wang S, Gao J, et al., Cancer Cell., 2003, vol. 4, no. 3, pp. 209-21; Gabril, M. Y., Onita, T., et al., Gene Ther., 2002, vol. 9, no. 23, pp. 1589-99) are used. All animal experiments were conducted according to standard protocols approved by Animal Care Committee. Genotyping was performed in PSP-TGMAP, and KIMAP mice were identified by a quick PCR genotyping protocol as previously reported (see above references referred to under item 6).
In one exemplary experiment, the animals are given 1 mg of gamma tocotrienol per day for 30 weeks via oral gavage. At the end of 10, 20 and 30 weeks, animals are sacrificed. The prostate along with the male accessory glands, i.e., the ventral and dorsolateral prostate lobes, seminal vesicles, and coagulation gland, were dissected out separately for histopathological characterization of prostate tumor development, prostate intraepithelial neoplasia (PIN) development and microinvasion. […]

CC(=O)O[C@@]12CO[C@@H]1C[C@H](O)[C@@]1(C)C(=O)[C@H](O)C3=C(C)[C@@H](OC(=O)[C@H](O)[C@@H](NC(=O)OC(C)(C)C)c4ccccc4)C[C@@](O)([C@@H](OC(=O)c4ccccc4)[C@H]21)C3(C)C [Docetaxel, (2R,3S)—N-carboxy-3-phenylisoserine, N-tert-butylester, 13-ester with 5,20-epoxy-1,2,4,7,10,13-hexahydroxytax-11-en-9-one-4-acetate-2-benzoate, trihydrate, reference compound]
effect on prostasphere number (DU145 prostaspheres): failed to induce any observable effect on prostasphere number
IC90 dosage (DU145): 1.01 ng/mL

COc1cccc(-c2cc(=O)c3ccccc3o2)c1N [PD98059]
cancer cell viability after gamma-T3 treatment with MAPK inhibitor [1]: not able to restore cancer cell viability

N#CC(=C(/N)Sc1ccccc1N)/C(C#N)=C(\N)Sc1ccccc1N [U0126]
cancer cell viability after gamma-T3 treatment with MAPK inhibitor [1]: not able to restore cancer cell viability

N#CCCN [β-aminopropionitrile, reference compound]
Id1 expression on co-treatment with gamma-T3 (MDA-MB-231 cells): almost completely restored the expression of Id1

Cc1c(O)cc2c(c1C)O[C@](C)(CCC[C@H](C)CCC[C@H](C)CCCC(C)C)CC2 [γ-T, 7,8-dimethyltocol, reference compound]
induction of apoptosis in LNCaP cells ([2]; data not shown): induce apoptosis in LNCaP cells at a dose similar to γ-T3

CC(C)=CCC/C(C)=C/CC/C(C)=C/CC[C@]1(C)CCc2cc(O)cc(C)c2O1 [δ-T3, 8-methyltocotrienol]
potency in suppressing cell growth in LNCaP ([2]; compared with the other isomers): more potent
development of prostate intraepithelial neoplasia (PIN) [3]: did not develop PIN
